Laboratory results published in publication PMC10223019, “Preclinical Evaluation of a PSMA-Targeting Homodimer with an Optimized Linker for Imaging of Prostate Cancer” (Molecules, 2023).
“And” between values parts separate entries of the source, which are not always exact repeats. Identical values can stand only once.

Key:
[1] = target: T1, Recombinant human PSMA (rhPSMA) (Homo sapiens, UniProt Q04609); assay: NAALADase assay (competitive inhibition, Amplex Red glutamate readout); type: biochemical; conditions: for IC50: rhPSMA, substrate Ac-Asp-Glu, 1 h 37 °C
T1 construct: purchased R&D systems, Abingdon, UK
T1 sequence (Q04609 whole entry): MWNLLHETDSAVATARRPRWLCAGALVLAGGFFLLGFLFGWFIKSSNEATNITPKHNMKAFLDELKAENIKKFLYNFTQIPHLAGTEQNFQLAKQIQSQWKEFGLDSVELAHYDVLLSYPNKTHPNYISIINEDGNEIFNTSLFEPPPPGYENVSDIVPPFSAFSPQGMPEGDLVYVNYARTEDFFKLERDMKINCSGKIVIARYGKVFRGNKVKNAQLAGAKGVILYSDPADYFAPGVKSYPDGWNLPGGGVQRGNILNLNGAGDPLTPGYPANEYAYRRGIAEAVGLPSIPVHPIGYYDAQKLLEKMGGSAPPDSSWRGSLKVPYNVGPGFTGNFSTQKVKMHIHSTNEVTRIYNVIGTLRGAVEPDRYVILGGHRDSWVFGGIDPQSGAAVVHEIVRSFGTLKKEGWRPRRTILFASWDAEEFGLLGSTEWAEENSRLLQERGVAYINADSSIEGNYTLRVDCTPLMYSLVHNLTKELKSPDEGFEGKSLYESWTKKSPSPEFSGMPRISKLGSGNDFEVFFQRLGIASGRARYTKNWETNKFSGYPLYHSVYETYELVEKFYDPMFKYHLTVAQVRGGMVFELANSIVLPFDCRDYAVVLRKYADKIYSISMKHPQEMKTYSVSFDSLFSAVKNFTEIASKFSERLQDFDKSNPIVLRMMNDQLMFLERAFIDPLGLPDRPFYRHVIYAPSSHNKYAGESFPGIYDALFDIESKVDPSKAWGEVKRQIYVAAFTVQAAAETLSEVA
Procedure: Recombinant human PSMA (rhPSMA; R&D systems, Abingdon, UK) was diluted in assay buffer (50 mM HEPES, 0.1 M NaCl, pH 7.5) to 0.4 μg/mL. The substrate Ac–Asp–Glu (40 μM) was mixed with the synthesized derivatives and with a reference (PSMA-617) at concentrations ranging from 10^−6 to 10^−13 M in a final volume of 12.5 μL assay buffer. The mixtures were combined with 12.5 μL of the rhPSMA solution and incubated for 1 h at 37 °C in 384-well black polystyrene microplates (ThermoFisher, Bleiswijk, The Netherlands). The amount of glutamate released was measured by incubating with 25 μL of a working solution of the Amplex Red glutamic acid kit (ThermoFisher, Bleiswijk, The Netherlands) at 37 °C for 30 min. Fluorescence was measured with a HIDEX Sense Optical System (Goedereede, The Netherlands) with excitation at 535 nm and emission at 590 nm. Data were normalized and analyzed using a one-site total binding regression with GraphPad Prism v9.0 (GraphPad Software, San Diego, CA, USA).

[2] = Stability in phosphate-buffered saline (PBS), radio-HPLC; type: physicochemical; conditions: 24 h post-incubation, 37 °C, indium-111 labeled, intact fraction
Procedure: [^111In]In-22 or [^111In]In-30 (~10 MBq, 20 µL) was mixed with 80 μL of PBS (0.01 M, pH 7.4) and incubated at 37 °C for up to 24 h. A sample of the PBS solution was loaded directly onto the radio-HPLC at 1, 4, and 24 h post-incubation.

[3] = Stability in mouse serum, radio-HPLC; type: in vitro ADME; conditions: 24 h post-incubation, 37 °C, indium-111 labeled, intact fraction
Procedure: [^111In]In-22 or [^111In]In-30 (~35 MBq, 70 µL) was mixed with 330 μL of mouse serum and incubated at 37 °C for up to 24 h. After 1, 4, and 24 h incubation, 50 μL of the mouse serum solution was added to a separate vial containing 50 µL of acetonitrile. The sample was centrifuged at 5000× g for 20 min. The supernatant was analyzed by radio-HPLC.

[4] = LogD7.4 by shake-flask method (PBS/n-octanol); type: physicochemical; conditions: PBS/n-octanol (1:1 v/v); LogD7.4, PBS pH 7.4/n-octanol, indium-111 labeled compound; read-out: LogD
Procedure: The distribution coefficients (LogD7.4 values) were determined by a shake-flask method, in which 2 μL (~0.5 MBq) of the labeling solution ([^111In]In-22 or [^111In]In-30) were added to an Eppendorf tube containing 1 mL of PBS (0.01 M, pH 7.4)/n-octanol (v/v, 1:1). After vigorous vortexing, the solution was centrifuged at 2500× g for 15 min for phase separation. Samples (3 × 10 μL) of the two phases were taken out and measured in a gamma counter. LogD7.4 values were calculated by using the following equation: LogD7.4 = log [(counts in octanol phase)/(counts in aqueous phase)] and the experiment was performed in triplicate.

[5] = test system: PSMA expressing LS174T cells; assay: Internalization and cell uptake assay; type: cell-based, human; conditions: 2 h 37 °C
Procedure: LS174T human colon carcinoma cells transfected with human PSMA were obtained from Dr. Sandra Heskamp (Radboud UMC, Nijmegen). Cells were cultured in RPMI-1640 media supplemented with 2 mM glutamine, 10% fetal bovine serum (FBS) and 0.3 mg/mL G418 (Geneticin, Sigma Aldrich, St. Louis, MO, USA).
Cells were seeded (1.2 × 10^6 cells/well) and cultured to confluency for 24 h prior to experiments. We prepared 10^−9 M solutions of [^111In]In-PSMA-617, [^111In]In-22, and [^111In]In-30 in internalization media (RPMI, 20 mM HEPES, 1% BSA, pH 7.4). The media were removed from each well, and they were rinsed twice with PBS at rt. 2 mL of the radioactive compound was then added to each well and incubated at 37 °C for 2 h. For the internalization assay, the media containing radioactive compound were removed, and each well was washed twice with cold PBS. A total of 1 mL of Glycine buffer (50 mM glycine, 100 mM NaCl, pH 2.8) was added immediately and incubated for 10 min at rt. The glycine wash was then collected into counting tubes (membrane-bound fraction). An extra wash was performed and collected in the same tubes. A total of 1 mL of NaOH (1 M) was then added to each tube and left for 15 min at rt. The lysate (internalized fraction) was then collected in separate counting tubes, together with one extra NaOH wash. Data were normalized to 1,000,000 cells and percentage added dose.

[6] = test system: BALB/c nude mice bearing LS174T PSMA-positive tumor xenografts; assay: Ex vivo biodistribution studies; type: in vivo; conditions: 24 h p.i.
Procedure: Animal experiments were performed in 8–10 weeks old male BALB/c nude mice (Janvier Labs, Le Genest-Saint-Isle, France). Animals were housed in individually ventilated cages (Blue line IVC, 4 mice per cage) under nonsterile standard conditions with cage enrichment present and free access to chlorophyll-free animal chow (Sniff GmbH, Soest, Germany) and water and acclimated for 1 week before experiments. Mice were subcutaneously inoculated with 4.0 × 10^6 LS174T cells in the right flank, diluted in 100 μL of cell suspension. Seven days after tumor cell inoculation, when xenografts were approximately 0.2–0.3 cm^3, the tracers were injected intravenously via the tail vein. All experiments were approved by the institutional Animal Welfare Committee and were conducted in accordance with the guidelines of the Revised Dutch Act on Animal Experimentation (WOD).
Mice were intravenously injected with ~1 nmol of either [^111In]In-PSMA-617, [^111In]In-22 or [^111In]In-30 with molar activity of 5 MBq/nmol for ex vivo biodistribution studies. Mice (n = 4/timepoint) were euthanized by cervical dislocation at 1, 4, and 24 h p.i. A block group was included, and mice were euthanized at 4 h p.i. Organs were collected in tubes and counted in the gamma counter, where the calibration factor was determined by measuring different known activities of indium-111.

Structure (SMILES)	IC50 [1]	also measured
NCCCCCC(=O)NCCCCC(NC(=O)NC(CCC(=O)O)C(=O)O)C(=O)O (centres unmarked) [Compound 1]	9.86 ± 1.7 nM	–
NCCC(=O)NCCCCCC(=O)NCCCC[C@H](NC(=O)N[C@@H](CCC(=O)O)C(=O)O)C(=O)O [Compound 2, EuK(Ahx-Ala)]	23.1 ± 3.1 nM	–
NCCC(=O)NCCC(=O)NCCCCCC(=O)NCCCC[C@H](NC(=O)N[C@@H](CCC(=O)O)C(=O)O)C(=O)O [Compound 3]	20.1 ± 2.7 nM	–
CC(C)C[C@H](N)[C@@H](O)CC(=O)NCCC(=O)NCCCCCC(=O)NCCCC[C@H](NC(=O)N[C@@H](CCC(=O)O)C(=O)O)C(=O)O [Compound 5]	10.1 ± 3.2 nM	–
CC(C)C[C@H](N)[C@@H](O)CC(=O)N[C@@H](Cc1ccccc1)C(=O)NCCCCCC(=O)NCCCC[C@H](NC(=O)N[C@@H](CCC(=O)O)C(=O)O)C(=O)O [Compound 9]	7 ± 0.3 nM	–
CC(C)C[C@H](N)[C@@H](O)CC(=O)NCCCCCC(=O)NCCCC[C@H](NC(=O)N[C@@H](CCC(=O)O)C(=O)O)C(=O)O [Compound 10]	6.83 ± 0.5 nM	–
CC(C)C[C@H](NC(=O)C[C@H](O)[C@@H](N)CC(C)C)[C@@H](O)CC(=O)NCCCCCC(=O)NCCCC[C@H](NC(=O)N[C@@H](CCC(=O)O)C(=O)O)C(=O)O [Compound 11]	6.5 ± 0.4 nM	–
CC(C)C[C@H](NC(=O)CCN)[C@@H](O)CC(=O)NCCCCCC(=O)NCCCC[C@H](NC(=O)N[C@@H](CCC(=O)O)C(=O)O)C(=O)O [Compound 13]	6.15 ± 0.6 nM	–
CC(C)C[C@H](NC(=O)[C@H](Cc1ccccc1)NC(=O)[C@@H](N)Cc1ccc(O)cc1)[C@@H](O)CC(=O)NCCCCCC(=O)NCCCC[C@H](NC(=O)N[C@@H](CCC(=O)O)C(=O)O)C(=O)O [Compound 17]	2.62 ± 0.4 nM	–
CC(C)C[C@H](NC(=O)[C@H](Cc1ccccc1)NC(=O)[C@H](CC(=O)O)NC(=O)CCC(C(=O)O)N1CCN(CC(=O)O)CCN(CC(=O)O)CCN(CC(=O)O)CC1)[C@@H](O)CC(=O)NCCCCCC(=O)NCCCC[C@H](NC(=O)N[C@@H](CCC(=O)O)C(=O)O)C(=O)O (stereo partly drawn) [Compound 22, EuK(Ahx-Sta-L-Phe-Asp-DOTA-GA)]	1.66 nM and 1 to 1.6 nM	IC50 of 22 (L-Phe) relative to 23 (D-Phe) ([1]; comparison in words): two-fold better; Stability in PBS (%) [2]: > 90%; Stability in Mouse Serum (%) [3]: > 90%; logD [4]: -3.26 ± 0.05
CC(C)C[C@H](NC(=O)[C@@H](Cc1ccccc1)NC(=O)[C@H](CC(=O)O)NC(=O)CCC(C(=O)O)N1CCN(CC(=O)O)CCN(CC(=O)O)CCN(CC(=O)O)CC1)[C@@H](O)CC(=O)NCCCCCC(=O)NCCCC[C@H](NC(=O)N[C@@H](CCC(=O)O)C(=O)O)C(=O)O (stereo partly drawn) [Compound 23, EuK(Ahx-Sta-D-Phe-Asp-DOTA-GA)]	–	logD [4]: -3.21 ± 0.07
CC(C)C[C@H](NC(=O)[C@@H](Cc1ccccc1)NC(=O)[C@H](CC(=O)O)NC(=O)CCC(C(=O)O)N1CCN(CC(=O)[O-])CCN(CC(=O)[O-])CCN(CC(=O)[O-])CC1)[C@@H](O)CC(=O)NCCCCCC(=O)NCCCC[C@H](NC(=O)N[C@@H](CCC(=O)O)C(=O)O)C(=O)O.[111In+3] (some centres unmarked) [[^111In]In-23]	–	Stability in PBS (%) [2]: > 90%; Stability in Mouse Serum (%) [3]: > 90%

The next lines start with results.

IC50 [1]	Structure (SMILES)	also measured
2.86 ± 0.3 nM	N[C@@H](Cc1ccccc1)C(=O)NCCC(=O)NCCCCCC(=O)NCCCC[C@H](NC(=O)N[C@@H](CCC(=O)O)C(=O)O)C(=O)O [Compound 4]	–
3.17 ± 0.5 nM	N[C@@H](Cc1ccccc1)C(=O)NCCCCCC(=O)NCCCC[C@H](NC(=O)N[C@@H](CCC(=O)O)C(=O)O)C(=O)O [Compound 6]	–
1.72 ± 0.4 nM	N[C@@H](Cc1ccccc1)C(=O)N[C@@H](Cc1ccccc1)C(=O)NCCCCCC(=O)NCCCC[C@H](NC(=O)N[C@@H](CCC(=O)O)C(=O)O)C(=O)O [Compound 7]	–
4.53 ± 0.4 nM	NCCC(=O)N[C@@H](Cc1ccccc1)C(=O)NCCCCCC(=O)NCCCC[C@H](NC(=O)N[C@@H](CCC(=O)O)C(=O)O)C(=O)O [Compound 8]	–
1.73 ± 0.7 nM	CC(C)C[C@H](NC(=O)[C@H](Cc1ccccc1)NC(=O)CN1CCN(CC(=O)O)CCN(CC(=O)O)CCN(CC(=O)O)CC1)[C@@H](O)CC(=O)NCCCCCC(=O)NCCCC[C@H](NC(=O)N[C@@H](CCC(=O)O)C(=O)O)C(=O)O [Compound 14]	–
2.1 ± 0.4 nM	CC(C)C[C@H](NC(=O)[C@H](Cc1ccccc1)NC(=O)[C@@H](N)CN)[C@@H](O)CC(=O)NCCCCCC(=O)NCCCC[C@H](NC(=O)N[C@@H](CCC(=O)O)C(=O)O)C(=O)O [Compound 15]	–
1.03 ± 0.5 nM	CC(C)C[C@H](NC(=O)[C@H](Cc1ccccc1)NC(=O)[C@@H](N)CC(=O)O)[C@@H](O)CC(=O)NCCCCCC(=O)NCCCC[C@H](NC(=O)N[C@@H](CCC(=O)O)C(=O)O)C(=O)O [Compound 16, EuK(Ahx-Sta-Phe-Asp)]	–
3.33 ± 0.4 nM	CC(C)C[C@H](NC(=O)[C@H](Cc1ccccc1)NC(=O)[C@@H](N)Cc1ccccc1)[C@@H](O)CC(=O)NCCCCCC(=O)NCCCC[C@H](NC(=O)N[C@@H](CCC(=O)O)C(=O)O)C(=O)O [Compound 18]	–
1.22 ± 0.3 nM	CC(C)C[C@H](NC(=O)[C@H](Cc1ccccc1)NC(=O)C[C@H](O)[C@@H](N)CC(C)C)[C@@H](O)CC(=O)NCCCCCC(=O)NCCCC[C@H](NC(=O)N[C@@H](CCC(=O)O)C(=O)O)C(=O)O [Compound 19]	–
0.9 ± 0.3 nM	O=C(O)CC[C@H](NC(=O)N[C@@H](CCCCNC(=O)[C@H](Cc1ccc2ccccc2c1)NC(=O)[C@H]1CC[C@H](CNC(=O)CN2CCN(CC(=O)O)CCN(CC(=O)O)CCN(CC(=O)O)CC2)CC1)C(=O)O)C(=O)O [PSMA-617, reference compound]	Internalized fraction as share of total uptake (internalization) [5]: 34.1%; Tumor-to-muscle (T/M) ratio [6]: 26
